{"source": "paper doi:10.1101/2024.04.09.588698v1", "about": "(biorxiv, 2024)", "key": {"Htc10-LBD [1]": {"biological_target": "T1, Htc10-LBD (Vreelandella titanicae, UniProt L9UCI1)", "T1 sequence (L9UCI1 48-325)": "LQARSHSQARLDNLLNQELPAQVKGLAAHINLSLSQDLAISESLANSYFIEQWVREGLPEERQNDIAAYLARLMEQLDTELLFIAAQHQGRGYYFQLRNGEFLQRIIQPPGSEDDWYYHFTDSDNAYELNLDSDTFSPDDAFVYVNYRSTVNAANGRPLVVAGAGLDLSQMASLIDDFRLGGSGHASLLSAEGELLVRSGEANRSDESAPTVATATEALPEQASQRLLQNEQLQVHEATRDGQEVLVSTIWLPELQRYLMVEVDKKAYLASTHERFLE", "conditions": "Biolog plate screen, est. 3-6 mM; binder"}, "Htc10-LBD [2]": {"biological_target": "T1, Htc10-LBD", "test": "biochemical", "conditions": "read-out: ΔTm (ºC) 10 mM solution"}, "Htc10-LBD [3]": {"biological_target": "T1, Htc10-LBD", "test": "biochemical"}, "Htc10-LBD [4]": {"biological_target": "T2, Htc10-LBD (Vreelandella titanicae, UniProt L9UCI1, Y141F)", "T2 sequence (L9UCI1 48-325 Y141F)": "T1 sequence (L9UCI1 48-325) with Y94F", "test": "isothermal titration calorimetry", "type": "binding"}, "Htc10-LBD [5]": {"biological_target": "T1, Htc10-LBD", "test": "isothermal titration calorimetry", "type": "binding"}, "Htc10-LBD [6]": {"biological_target": "T3, Htc10-LBD (Vreelandella titanicae, UniProt L9UCI1, D179A/N177A/Y141F)", "T3 sequence (L9UCI1 48-325 Y141F/N177A/D179A)": "T1 sequence (L9UCI1 48-325) with Y94F, N130A, D132A", "test": "isothermal titration calorimetry", "type": "binding"}}, "note": "Numbering of substitutions follows the chain as printed.", "data": [{"smiles": "Cc1cn([C@H]2C[C@H](O)[C@@H](CO)O2)c(=O)[nH]c1=O", "note": "[Thymidine]", "values": [{"measurement": "ΔTm (ºC) Biolog plates", "setting": "Htc10-LBD [1]", "value": 2.0, "unit": "degC"}, {"measurement": "ΔTm at 10000 µM", "setting": "Htc10-LBD [2]", "value": 0, "unit": "°C"}]}, {"smiles": "Nc1nc2nc[nH]c2c(=O)[nH]1", "note": "[guanine]", "values": [{"measurement": "ΔTm at 600 µM", "setting": "Htc10-LBD [3]; read-out: ΔTm (ºC) gua", "value": 5.2, "unit": "°C"}, {"measurement": "Kd", "setting": "Htc10-LBD [4]", "value": "25 ± 2", "unit": "µM"}, {"measurement": "Kd", "setting": "Htc10-LBD [5]", "value": "7 ± 0.6", "unit": "µM"}, {"measurement": "Kd", "setting": "Htc10-LBD [6]", "value": "118 ± 9", "unit": "µM"}, {"measurement": "ΔTm at 10000 µM", "setting": "Htc10-LBD [2]", "value": 6, "unit": "°C"}]}, {"smiles": "O=c1cc[nH]c(=O)[nH]1", "note": "[Uracil]", "values": [{"measurement": "ΔTm at 10000 µM", "setting": "Htc10-LBD [2]", "value": 3, "unit": "°C"}]}, {"smiles": "Nc1nc2c(ncn2[C@@H]2O[C@H](CO)[C@@H](O)[C@H]2O)c(=O)[nH]1", "note": "[Guanosine]", "values": [{"measurement": "ΔTm (ºC) Biolog plates", "setting": "Htc10-LBD [1]", "value": 2.5, "unit": "degC"}, {"measurement": "ΔTm at 10000 µM", "setting": "Htc10-LBD [2]", "value": 0.5, "unit": "°C"}]}, {"smiles": "O=c1[nH]cnc2c1ncn2[C@H]1C[C@H](O)[C@@H](CO)O1", "note": "[2-deoxy-inosine]", "values": [{"measurement": "ΔTm (ºC) Biolog plates", "setting": "Htc10-LBD [1]", "value": 6.5, "unit": "degC"}]}, {"smiles": "Cc1c[nH]c(=O)[nH]c1=O", "note": "[Thymine]", "values": [{"measurement": "ΔTm (ºC) Biolog plates", "setting": "Htc10-LBD [1]", "value": 2.0, "unit": "degC"}, {"measurement": "ΔTm at 10000 µM", "setting": "Htc10-LBD [2]", "value": 1.7, "unit": "°C"}]}, {"smiles": "O=c1[nH]c(=O)c2nc[nH]c2[nH]1", "note": "[Xanthine]", "values": [{"measurement": "ΔTm (ºC) Biolog plates", "setting": "Htc10-LBD [1]", "value": 2.5, "unit": "degC"}, {"measurement": "ΔTm at 10000 µM", "setting": "Htc10-LBD [2]", "value": -8, "unit": "°C"}]}, {"smiles": "O=c1[nH]cnc2nc[nH]c12", "note": "[hypoxanthine]", "values": [{"measurement": "ΔTm (ºC) Biolog plates", "setting": "Htc10-LBD [1]", "value": 8.0, "unit": "degC"}, {"measurement": "ΔTm at 500 µM", "setting": "Htc10-LBD [3]; read-out: ΔTm (ºC) hyp", "value": 10.6, "unit": "°C"}, {"measurement": "Kd", "setting": "Htc10-LBD [4]", "value": "13.9 ± 0.9", "unit": "µM"}, {"measurement": "Kd", "setting": "Htc10-LBD [5]", "value": "2.5 ± 0.3", "unit": "µM"}, {"measurement": "Kd", "setting": "Htc10-LBD [6]", "value": "140 ± 9", "unit": "µM"}, {"measurement": "ΔTm at 10000 µM", "setting": "Htc10-LBD [2]", "value": 16, "unit": "°C"}]}, {"smiles": "O=c1[nH]cnc2c1ncn2[C@@H]1O[C@H](CO)[C@@H](O)[C@H]1O", "note": "[Inosine]", "values": [{"measurement": "ΔTm at 10000 µM", "setting": "Htc10-LBD [2]", "value": 3, "unit": "°C"}]}]}
